Data: paper PMC6290023 (Scientific Reports, 2018)
Square brackets hold non-standard residues; d marks the D form. Peptide text beside a SMILES is read from it.

Columns and labels:
LPS-stimulated MG6 cells = assay: Anti-inflammatory effect in LPS-stimulated MG6 cells (TNF-α / IL-6 ELISA); format: cell-based, mouse; conditions: LPS-stimulated MG6 cells, ELISA; for anti-inflammatory effects / effect on expression of TNF-α: 24 h; for effect on expression of TNF-α: vs LPS-stimulated cells without treatment; for inhibition of IL-6 expression compared with MHP1 / inhibition of TNF-α expression compared with MHP1: medium harvested 24 h after stimulation
Method: MG6 cells were obtained from RIKEN BRC (Tsukuba, Japan)[25],[26]. The MG6 cells were maintained in DMEM (Nakarai, Kyoto, Japan) supplemented with 10% FBS (Thermo Fisher Scientific, Waltham, MA, USA), 10 μg/ml insulin (Sigma-Aldrich, St. Louis, MO, USA) and 100 μM 2-mercaptoethanol (Sigma-Aldrich). These cells (1 × 10^5 cells) were plated in 96-well plastic culture dishes. After overnight incubation, the medium was replaced with DMEM supplemented with 4% FBS. LPS (Escherichia coli 0111: B4; Sigma-Aldrich, St. Louis, MO, USA) and MHP1 or modified MHP1 was added to the medium, which was then harvested at 24 h after stimulation. In the experiment checking the stability at 26 or 37 °C, MHP1-Ac or MHP1-AcN was incubated at 26 or 37 °C for 24 h before adding to the medium.
The concentrations of TNF-α and IL-6 were measured using commercially available ELISA kits: TNF-α, Quantikine Mouse TNF-α ELISA Kit (R&D systems); IL-6, Quantikine Mouse IL-6 ELISA Kit (R&D systems).

Mouse (CD-1(ICR)) serum = conditions: 37 °C, up to 60 min

CC[C@H](C)[C@H](NC(=O)[C@H](CO)NC(=O)[C@@H](NC(=O)[C@H](CCCCN)NC(=O)[C@@H](NC(=O)[C@@H](NC(=O)[C@H](Cc1ccc(O)cc1)NC(=O)[C@@H](NC(=O)[C@@H](CCSC)NC(=O)[C@@H](N)CC(C)C)C(C)C)C(C)C)C(C)C)[C@@H](C)O)C(=O)N[C@@H](CCCCN)C(=O)N[C@H](C(=O)N1CCC[C@H]1C(=O)N[C@@H](CO)C(=O)N[C@@H](CO)C(=O)N[C@@H](Cc1c[nH]cn1)C(=O)N[C@@H](CC(N)=O)C(=O)N[C@@H](CC(C)C)C(=O)N[C@@H](CCSC)C(=O)N[C@@H](CCCCN)C(=O)NCC(=O)NCC(=O)N[C@@H](CO)C(=O)N[C@H](C(=O)N[C@@H](CCCCN)C(=O)N[C@@H](CC(N)=O)C(=O)N[C@@H](Cc1c[nH]c2ccccc12)C(=O)N[C@@H](CO)C(=O)NCC(=O)N[C@@H](CC(N)=O)C(=O)O)[C@@H](C)O)[C@@H](C)CC [MHP1-DN3] (H-L[dM]VYVVKTSIKIPSSHNLMKGGSTKNWSGN-OH)
anti-inflammatory effects (LPS-stimulated MG6 cells): lacked anti-inflammatory effects | effect on expression of TNF-α (LPS-stimulated MG6 cells): no influence

LMVYVVKTSIKIPSSHNLMKGGSTKNWSGN
cleaved bond (Mouse (CD-1(ICR)) serum): L-M2 and M2-V and V-Y4 and Y4-V, major and K7-T, major and Met19-K | fragment found (Mouse (CD-1(ICR)) serum): LMVYVVKTSIKIPSSHNLMKGGSTKNWSGN-Oxygen

CC[C@H](C)[C@H](NC(=O)[C@H](CO)NC(=O)[C@@H](NC(=O)[C@H](CCCCN)NC(=O)[C@@H](NC(=O)[C@@H](NC(=O)[C@@H](Cc1ccc(O)cc1)NC(=O)[C@@H](NC(=O)[C@H](CCSC)NC(=O)[C@@H](N)CC(C)C)C(C)C)C(C)C)C(C)C)[C@@H](C)O)C(=O)N[C@@H](CCCCN)C(=O)N[C@H](C(=O)N1CCC[C@H]1C(=O)N[C@@H](CO)C(=O)N[C@@H](CO)C(=O)N[C@@H](Cc1c[nH]cn1)C(=O)N[C@@H](CC(N)=O)C(=O)N[C@@H](CC(C)C)C(=O)N[C@@H](CCSC)C(=O)N[C@@H](CCCCN)C(=O)NCC(=O)NCC(=O)N[C@@H](CO)C(=O)N[C@H](C(=O)N[C@@H](CCCCN)C(=O)N[C@@H](CC(N)=O)C(=O)N[C@@H](Cc1c[nH]c2ccccc12)C(=O)N[C@@H](CO)C(=O)NCC(=O)N[C@@H](CC(N)=O)C(=O)O)[C@@H](C)O)[C@@H](C)CC [MHP1-DN2] (H-LMV[dY]VVKTSIKIPSSHNLMKGGSTKNWSGN-OH)
anti-inflammatory effects (LPS-stimulated MG6 cells): lacked anti-inflammatory effects | effect on expression of TNF-α (LPS-stimulated MG6 cells): augmented the expression of TNF-α

CC[C@H](C)[C@H](NC(=O)[C@H](CO)NC(=O)[C@@H](NC(=O)[C@@H](CCCCN)NC(=O)[C@@H](NC(=O)[C@@H](NC(=O)[C@H](Cc1ccc(O)cc1)NC(=O)[C@@H](NC(=O)[C@H](CCSC)NC(=O)[C@@H](N)CC(C)C)C(C)C)C(C)C)C(C)C)[C@@H](C)O)C(=O)N[C@@H](CCCCN)C(=O)N[C@H](C(=O)N1CCC[C@H]1C(=O)N[C@@H](CO)C(=O)N[C@@H](CO)C(=O)N[C@@H](Cc1c[nH]cn1)C(=O)N[C@@H](CC(N)=O)C(=O)N[C@@H](CC(C)C)C(=O)N[C@@H](CCSC)C(=O)N[C@@H](CCCCN)C(=O)NCC(=O)NCC(=O)N[C@@H](CO)C(=O)N[C@H](C(=O)N[C@@H](CCCCN)C(=O)N[C@@H](CC(N)=O)C(=O)N[C@@H](Cc1c[nH]c2ccccc12)C(=O)N[C@@H](CO)C(=O)NCC(=O)N[C@@H](CC(N)=O)C(=O)O)[C@@H](C)O)[C@@H](C)CC [MHP1-DN1] (H-LMVYVV[dK]TSIKIPSSHNLMKGGSTKNWSGN-OH)
anti-inflammatory effects (LPS-stimulated MG6 cells): lacked anti-inflammatory effects | effect on expression of TNF-α (LPS-stimulated MG6 cells): augmented the expression of TNF-α

CC[C@H](C)[C@H](NC(=O)[C@H](CO)NC(=O)[C@@H](NC(=O)[C@H](CCCCN)NC(=O)[C@@H](NC(=O)[C@@H](NC(=O)[C@H](Cc1ccc(O)cc1)NC(=O)[C@@H](NC(=O)[C@H](CCSC)NC(=O)[C@@H](N)CC(C)C)C(C)C)C(C)C)C(C)C)[C@@H](C)O)C(=O)N[C@@H](CCCCN)C(=O)N[C@H](C(=O)N1CCC[C@H]1C(=O)N[C@@H](CO)C(=O)N[C@@H](CO)C(=O)N[C@@H](Cc1c[nH]cn1)C(=O)N[C@@H](CC(N)=O)C(=O)N[C@@H](CC(C)C)C(=O)N[C@@H](CCSC)C(=O)N[C@@H](CCCCN)C(=O)NCC(=O)NCC(=O)N[C@@H](CO)C(=O)N[C@H](C(=O)N[C@@H](CCCCN)C(=O)N[C@@H](CC(N)=O)C(=O)N[C@@H](Cc1c[nH]c2ccccc12)C(=O)N[C@@H](CO)C(=O)NCC(=O)N[C@@H](CC(N)=O)C(N)=O)[C@@H](C)O)[C@@H](C)CC [MHP1-N] (H-LMVYVVKTSIKIPSSHNLMKGGSTKNWSGN-NH2)
inhibition of IL-6 expression compared with MHP1 (LPS-stimulated MG6 cells): not replicated | inhibition of TNF-α expression compared with MHP1 (LPS-stimulated MG6 cells): more effective than MHP1

CC[C@H](C)[C@H](NC(=O)[C@H](CO)NC(=O)[C@@H](NC(=O)[C@H](CCCCN)NC(=O)[C@@H](NC(=O)[C@@H](NC(=O)[C@H](Cc1ccc(O)cc1)NC(=O)[C@@H](NC(=O)[C@H](CCSC)NC(=O)[C@@H](N)CC(C)C)C(C)C)C(C)C)C(C)C)[C@@H](C)O)C(=O)N[C@@H](CCCCN)C(=O)N[C@H](C(=O)N1CCC[C@H]1C(=O)N[C@@H](CO)C(=O)N[C@@H](CO)C(=O)N[C@@H](Cc1c[nH]cn1)C(=O)N[C@@H](CC(N)=O)C(=O)N[C@@H](CC(C)C)C(=O)N[C@H](CCSC)C(=O)N[C@@H](CCCCN)C(=O)NCC(=O)NCC(=O)N[C@@H](CO)C(=O)N[C@H](C(=O)N[C@@H](CCCCN)C(=O)N[C@@H](CC(N)=O)C(=O)N[C@@H](Cc1c[nH]c2ccccc12)C(=O)N[C@@H](CO)C(=O)NCC(=O)N[C@@H](CC(N)=O)C(=O)O)[C@@H](C)O)[C@@H](C)CC [MHP1-DC] (H-LMVYVVKTSIKIPSSHNL[dM]KGGSTKNWSGN-OH)
inhibition of IL-6 expression compared with MHP1 (LPS-stimulated MG6 cells): not replicated | inhibition of TNF-α expression compared with MHP1 (LPS-stimulated MG6 cells): more effective than MHP1
